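GI50 is the concentration that inhibits growth by half. The concentration for full growth arrest is given as TGI.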
What was measured:
Experiment in all cases: NCI anticancer screen, dose series, 384-well format; in the data active = GI50 below about 0.43 µM; inactive = the rest
SNB-75 CNS = system: SNB-75 CNS
LOX IMVI melanoma = system: LOX IMVI melanoma
MDA-MB-231 breast = system: MDA-MB-231 breast
MCF7 breast = system: MCF7 breast
SW-620 colon = system: SW-620 colon
UACC-62 melanoma = system: UACC-62 melanoma
HOP-92 NSCLC = system: HOP-92 NSCLC
NCI/ADR-RES ovarian = system: NCI/ADR-RES ovarian
SK-OV-3 ovarian = system: SK-OV-3 ovarian
MDA-MB-468 breast = system: MDA-MB-468 breast
SK-MEL-28 melanoma = system: SK-MEL-28 melanoma
UACC-257 melanoma = system: UACC-257 melanoma
COLO 205 colon = system: COLO 205 colon
OVCAR-4 ovarian = system: OVCAR-4 ovarian
MALME-3M melanoma = system: MALME-3M melanoma
OVCAR-8 ovarian = system: OVCAR-8 ovarian
PC-3 prostate = system: PC-3 prostate
U251 glioblastoma = system: U251 glioblastoma
OVCAR-3 ovarian = system: OVCAR-3 ovarian
NCI-H322M lung = system: NCI-H322M lung
BT-549 breast = system: BT-549 breast
M14 melanoma = system: M14 melanoma
SK-MEL-5 melanoma = system: SK-MEL-5 melanoma
NCI-H522 lung = system: NCI-H522 lung
TK-10 renal = system: TK-10 renal
MDA-MB-435 melanoma = system: MDA-MB-435 melanoma
786-0 renal = system: 786-0 renal
CAKI-1 renal = system: CAKI-1 renal
HCT-116 colon = system: HCT-116 colon
RXF 393 renal = system: RXF 393 renal
HT29 colon = system: HT29 colon
HOP-62 NSCLC = system: HOP-62 NSCLC
NCI-H226 lung = system: NCI-H226 lung
CCRF-CEM leukemia = system: CCRF-CEM leukemia
HCT-15 colon = system: HCT-15 colon
SN12C renal = system: SN12C renal
EKVX NSCLC = system: EKVX NSCLC
SF-539 CNS = system: SF-539 CNS
SR leukemia = system: SR leukemia
DU-145 prostate = system: DU-145 prostate
NCI-H460 NSCLC = system: NCI-H460 NSCLC
KM12 colon = system: KM12 colon
HS 578T breast = system: HS 578T breast
A498 renal = system: A498 renal
NCI-H23 lung = system: NCI-H23 lung
HL-60(TB) leukemia = system: HL-60(TB) leukemia
IGROV1 ovarian = system: IGROV1 ovarian
SF-295 CNS = system: SF-295 CNS
A549 NSCLC = system: A549 NSCLC
OVCAR-5 ovarian = system: OVCAR-5 ovarian
HCC-2998 colon = system: HCC-2998 colon
MOLT-4 leukemia = system: MOLT-4 leukemia
T-47D breast = system: T-47D breast
UO-31 renal = system: UO-31 renal
SF-268 CNS = system: SF-268 CNS
RPMI-8226 leukemia = system: RPMI-8226 leukemia
ACHN renal = system: ACHN renal
SNB-19 CNS = system: SNB-19 CNS
SK-MEL-2 melanoma = system: SK-MEL-2 melanoma

CC#CC(=O)N1CCC[C@H]1c1nc(-c2ccc(C(=O)Nc3ccccn3)cc2)c2c(N)nccn12
> 91.9 µM: TGI (BT-549 breast)
> 88.3 µM: TGI (NCI-H322M lung)
40.7 µM: TGI (MDA-MB-468 breast)
36.1 µM: TGI (MOLT-4 leukemia)
inactive: GI50 (SNB-75 CNS) 29.7 µM | GI50 (LOX IMVI melanoma) > 89.2 µM | GI50 (MDA-MB-231 breast) 38.3 µM | GI50 (MCF7 breast) 50.9 µM | GI50 (SW-620 colon) > 100 µM | GI50 (UACC-62 melanoma) 39.9 µM | GI50 (HOP-92 NSCLC) 68.8 µM | GI50 (NCI/ADR-RES ovarian) > 100 µM | GI50 (SK-OV-3 ovarian) 71.4 µM | GI50 (MDA-MB-468 breast) 15.5 µM | GI50 (SK-MEL-28 melanoma) > 100 µM | GI50 (UACC-257 melanoma) 67.7 µM | GI50 (COLO 205 colon) > 100 µM | GI50 (OVCAR-4 ovarian) > 100 µM | GI50 (MALME-3M melanoma) > 58.9 µM | GI50 (OVCAR-8 ovarian) > 90 µM | GI50 (PC-3 prostate) > 100 µM | GI50 (U251 glioblastoma) > 100 µM | GI50 (OVCAR-3 ovarian) 44.8 µM | GI50 (NCI-H322M lung) 31.6 µM | GI50 (BT-549 breast) 27.9 µM | GI50 (M14 melanoma) 74.8 µM | GI50 (SK-MEL-5 melanoma) 60.5 µM | GI50 (NCI-H522 lung) 5.87 µM | GI50 (TK-10 renal) 57.2 µM | GI50 (MDA-MB-435 melanoma) > 100 µM | GI50 (786-0 renal) > 74.8 µM | GI50 (CAKI-1 renal) 57.7 µM | GI50 (HCT-116 colon) 47.9 µM | GI50 (RXF 393 renal) 14.2 µM | GI50 (HT29 colon) 84.8 µM | GI50 (HOP-62 NSCLC) 42 µM | GI50 (NCI-H226 lung) 41.6 µM | GI50 (CCRF-CEM leukemia) 85.3 µM | GI50 (HCT-15 colon) > 76.2 µM | GI50 (SN12C renal) 98 µM | GI50 (EKVX NSCLC) 73.1 µM | GI50 (SF-539 CNS) > 100 µM | GI50 (SR leukemia) 15.2 µM | GI50 (DU-145 prostate) 82 µM | GI50 (NCI-H460 NSCLC) 71.8 µM | GI50 (KM12 colon) > 100 µM | GI50 (HS 578T breast) 44.9 µM | GI50 (A498 renal) 59.6 µM | GI50 (NCI-H23 lung) > 100 µM | GI50 (HL-60(TB) leukemia) > 100 µM | GI50 (IGROV1 ovarian) 20 µM | GI50 (SF-295 CNS) > 100 µM | GI50 (A549 NSCLC) 51.9 µM | GI50 (OVCAR-5 ovarian) > 100 µM | GI50 (HCC-2998 colon) > 100 µM | GI50 (MOLT-4 leukemia) 18.8 µM | GI50 (T-47D breast) 40.1 µM | GI50 (UO-31 renal) > 95.6 µM | GI50 (SF-268 CNS) > 86.4 µM | GI50 (RPMI-8226 leukemia) 48.5 µM | GI50 (ACHN renal) > 73.2 µM | GI50 (SNB-19 CNS) > 100 µM
64.3 µM: TGI (IGROV1 ovarian)
> 83 µM: TGI (SNB-75 CNS)
> 60.9 µM: TGI (RXF 393 renal)
42.1 µM: TGI (SR leukemia)
> 80.8 µM: TGI (NCI-H522 lung)
98.4 µM: TGI (NCI-H226 lung)
> 100 µM: TGI (LOX IMVI melanoma) | TGI (MDA-MB-231 breast) | TGI (MCF7 breast) | TGI (SW-620 colon) | TGI (UACC-62 melanoma) | TGI (HOP-92 NSCLC) | TGI (NCI/ADR-RES ovarian) | TGI (SK-OV-3 ovarian) | TGI (SK-MEL-28 melanoma) | TGI (UACC-257 melanoma) | TGI (COLO 205 colon) | TGI (OVCAR-4 ovarian) | TGI (MALME-3M melanoma) | TGI (OVCAR-8 ovarian) | TGI (PC-3 prostate) | TGI (U251 glioblastoma) | TGI (OVCAR-3 ovarian) | TGI (M14 melanoma) | TGI (SK-MEL-5 melanoma) | TGI (TK-10 renal) | TGI (MDA-MB-435 melanoma) | TGI (786-0 renal) | TGI (CAKI-1 renal) | TGI (HCT-116 colon) | TGI (HT29 colon) | TGI (HOP-62 NSCLC) | TGI (CCRF-CEM leukemia) | TGI (HCT-15 colon) | TGI (SN12C renal) | TGI (EKVX NSCLC) | TGI (SF-539 CNS) | TGI (DU-145 prostate) | TGI (NCI-H460 NSCLC) | TGI (KM12 colon) | TGI (HS 578T breast) | TGI (A498 renal) | TGI (NCI-H23 lung) | TGI (HL-60(TB) leukemia) | TGI (SF-295 CNS) | TGI (A549 NSCLC) | TGI (OVCAR-5 ovarian) | TGI (HCC-2998 colon) | TGI (T-47D breast) | TGI (UO-31 renal) | TGI (SF-268 CNS) | TGI (RPMI-8226 leukemia) | TGI (ACHN renal) | TGI (SNB-19 CNS)

O=c1[nH]c(-c2ccc(C(F)(F)F)cc2)nc2c1CSCC2
> 100 µM: TGI (SNB-75 CNS) | TGI (MDA-MB-231 breast) | TGI (MCF7 breast) | TGI (SW-620 colon) | TGI (UACC-62 melanoma) | TGI (HOP-92 NSCLC) | TGI (NCI/ADR-RES ovarian) | TGI (SK-OV-3 ovarian) | TGI (SK-MEL-28 melanoma) | TGI (UACC-257 melanoma) | TGI (COLO 205 colon) | TGI (OVCAR-4 ovarian) | TGI (MALME-3M melanoma) | TGI (OVCAR-8 ovarian) | TGI (PC-3 prostate) | TGI (U251 glioblastoma) | TGI (OVCAR-3 ovarian) | TGI (NCI-H322M lung) | TGI (BT-549 breast) | TGI (M14 melanoma) | TGI (SK-MEL-5 melanoma) | TGI (NCI-H522 lung) | TGI (TK-10 renal) | TGI (MDA-MB-435 melanoma) | TGI (786-0 renal) | TGI (CAKI-1 renal) | TGI (RXF 393 renal) | TGI (HT29 colon) | TGI (HOP-62 NSCLC) | TGI (NCI-H226 lung) | TGI (CCRF-CEM leukemia) | TGI (HCT-15 colon) | TGI (SN12C renal) | TGI (EKVX NSCLC) | TGI (SF-539 CNS) | TGI (SR leukemia) | TGI (DU-145 prostate) | TGI (NCI-H460 NSCLC) | TGI (KM12 colon) | TGI (HS 578T breast) | TGI (A498 renal) | TGI (NCI-H23 lung) | TGI (HL-60(TB) leukemia) | TGI (IGROV1 ovarian) | TGI (SF-295 CNS) | TGI (A549 NSCLC) | TGI (OVCAR-5 ovarian) | TGI (HCC-2998 colon) | TGI (SK-MEL-2 melanoma) | TGI (MOLT-4 leukemia) | TGI (T-47D breast) | TGI (SF-268 CNS) | TGI (RPMI-8226 leukemia) | TGI (ACHN renal) | TGI (SNB-19 CNS)
53 µM: TGI (MDA-MB-468 breast)
inactive: GI50 (SNB-75 CNS) 24.5 µM | GI50 (MDA-MB-231 breast) > 100 µM | GI50 (MCF7 breast) > 100 µM | GI50 (SW-620 colon) > 100 µM | GI50 (UACC-62 melanoma) > 100 µM | GI50 (HOP-92 NSCLC) > 100 µM | GI50 (NCI/ADR-RES ovarian) > 100 µM | GI50 (SK-OV-3 ovarian) 14.7 µM | GI50 (MDA-MB-468 breast) 7.03 µM | GI50 (SK-MEL-28 melanoma) > 100 µM | GI50 (UACC-257 melanoma) > 100 µM | GI50 (COLO 205 colon) > 100 µM | GI50 (OVCAR-4 ovarian) 0.818 µM | GI50 (MALME-3M melanoma) 25 µM | GI50 (OVCAR-8 ovarian) > 100 µM | GI50 (PC-3 prostate) > 100 µM | GI50 (U251 glioblastoma) > 100 µM | GI50 (OVCAR-3 ovarian) 13.5 µM | GI50 (NCI-H322M lung) > 100 µM | GI50 (BT-549 breast) 30.5 µM | GI50 (M14 melanoma) > 100 µM | GI50 (SK-MEL-5 melanoma) 52.5 µM | GI50 (NCI-H522 lung) 28.8 µM | GI50 (TK-10 renal) > 100 µM | GI50 (MDA-MB-435 melanoma) > 100 µM | GI50 (786-0 renal) > 100 µM | GI50 (CAKI-1 renal) 3.83 µM | GI50 (RXF 393 renal) 13.5 µM | GI50 (HT29 colon) > 100 µM | GI50 (HOP-62 NSCLC) 79.5 µM | GI50 (NCI-H226 lung) 13.3 µM | GI50 (CCRF-CEM leukemia) 88.6 µM | GI50 (HCT-15 colon) > 100 µM | GI50 (SN12C renal) > 100 µM | GI50 (EKVX NSCLC) 24 µM | GI50 (SF-539 CNS) > 100 µM | GI50 (SR leukemia) > 100 µM | GI50 (DU-145 prostate) > 100 µM | GI50 (NCI-H460 NSCLC) > 100 µM | GI50 (KM12 colon) > 100 µM | GI50 (HS 578T breast) > 100 µM | GI50 (A498 renal) 95.7 µM | GI50 (NCI-H23 lung) 25.7 µM | GI50 (HL-60(TB) leukemia) > 100 µM | GI50 (IGROV1 ovarian) > 100 µM | GI50 (SF-295 CNS) > 100 µM | GI50 (A549 NSCLC) > 100 µM | GI50 (OVCAR-5 ovarian) > 100 µM | GI50 (HCC-2998 colon) > 100 µM | GI50 (SK-MEL-2 melanoma) 72.9 µM | GI50 (MOLT-4 leukemia) 68.7 µM | GI50 (T-47D breast) > 100 µM | GI50 (SF-268 CNS) 98.9 µM | GI50 (RPMI-8226 leukemia) 78.3 µM | GI50 (ACHN renal) > 100 µM | GI50 (SNB-19 CNS) > 100 µM

— PubChem BioAssay (NCI)
